Data set [1] deals with Mycobacterium tuberculosis strain EH 4.0 (361.269). The data set can be described thus: Test 4: MIC determination, resazurin fluorescence, strain EH 4.0. Conditions: Mycobacterium tuberculosis, read-out: pIC50, Test 4, M. tuberculosis strain EH 4.0 (361.269) (converted). The format is cell-based. In a few lines:
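M. tuberculosis EH 4.0 (361.269) from stationary-phase culture, ~5×10^5 CFU/well in 7H9 medium with compound dilutions. Incubated 7 days at 37 °C, then resazurin added; MIC from fluorescence.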
On the technique in general: Resazurin is reduced to fluorescent resorufin, in cell work by metabolically active cells.

Data set [2] deals with Mycobacterium tuberculosis strain H37Rv. The experiment in a line: Test 1: MIC determination, resazurin fluorescence, M. tuberculosis H37Rv. The format is cell-based. As to conditions: Mycobacterium tuberculosis, H37RV.
The subject of data set [3] is replicating and non-replicating bacteria. As to conditions: cited from earlier work.
The subject of the next data set is M. tuberculosis H37Rv. As to conditions: strain M. tuberculosis H37Rv, inside macrophages; cited from earlier work.
[4] abbreviates: Test 1, M. tuberculosis H37Rv, first test, read-out: pIC50 (converted).

Results on three compounds are retold here after patent publication US20190330189A1, “ANTIBACTERIAL COMPOUNDS” (Janssen Sciences Ireland UC, priority 2015, published 2019).

Converted amounts (≈) assume the structure as drawn. Read-outs that look alike come from different tables or passages of the source.

For the compound `CCc1nc2ccc(Cl)cn2c1C(=O)NCc1ccc(N2CC3(C2)CN(c2ccc(OC(F)(F)F)cc2)C3)cc1` [Compound 4], the melting point – broadly, the temperature, or range, at which the solid turns liquid – turned out to be 184.57 °C. Further, the IC50 in data set [1] is 5.01 nM. Further, in data set [2] (setting [4]), the IC50 is 120 nM.

On to `CCc1nc2ccc(Cl)cn2c1C(=O)NCc1ccc(N2CCC(c3ccc(OC(F)(F)F)cc3)CC2)cc1` [Compound Q203, Q203], for which the “activity against replicating and non-replicating bacteria” value in data set [3] is listed as “highly active”. Further, the MIC50 in the data set with M. tuberculosis H37Rv is 0.28 nM (≈ 0.156 ng/mL).

With `CCc1nc2sc(C)cn2c1C(=O)NCc1ccc(N2CC3(CCC3)C2)cc1` [Compound 12], the melting point worked out at 300 °C. Moreover, the IC50 in data set [1] is 31.6 nM. The IC50 in data set [2] (setting [4]) was 129 nM. The IC50 in data set [2] (Test 1, repeated (2nd) test, read-out: pIC50 * (converted)) was 70.8 nM. Also, in data set [2] (Test 1, repeated (3rd) test, read-out: pIC50 ** (converted)), the IC50 is 107 nM.
